Test results published in US8614327B2 (Vertex Pharmaceuticals Incorporated, priority 2004, dated 2013).

Target: T1, ΔF508-CFTR (Homo sapiens, UniProt P13569, DEL508-508)
T1 construct: expressed in transfected cells
Assay: Membrane potential optical (FRET/VIPR) assay, identification of potentiator compounds
Format: cell-based
Conditions: Table 3, assay not given; for % Activity: relative efficacy
Outline: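 Double-addition potentiator screen: compound delivered in gluconate-substituted Cl^--free medium, membrane potential followed via CC2-DMPE/DiSBAC2(3) FRET on VIPR. Cells were ΔF508-CFTR-expressing NIH3T3 mouse fibroblasts, held 2 h at 37° C. then 24 h at 27° C. before assay.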

T1 sequence (P13569 with tags, fused parts or gaps DEL508-508): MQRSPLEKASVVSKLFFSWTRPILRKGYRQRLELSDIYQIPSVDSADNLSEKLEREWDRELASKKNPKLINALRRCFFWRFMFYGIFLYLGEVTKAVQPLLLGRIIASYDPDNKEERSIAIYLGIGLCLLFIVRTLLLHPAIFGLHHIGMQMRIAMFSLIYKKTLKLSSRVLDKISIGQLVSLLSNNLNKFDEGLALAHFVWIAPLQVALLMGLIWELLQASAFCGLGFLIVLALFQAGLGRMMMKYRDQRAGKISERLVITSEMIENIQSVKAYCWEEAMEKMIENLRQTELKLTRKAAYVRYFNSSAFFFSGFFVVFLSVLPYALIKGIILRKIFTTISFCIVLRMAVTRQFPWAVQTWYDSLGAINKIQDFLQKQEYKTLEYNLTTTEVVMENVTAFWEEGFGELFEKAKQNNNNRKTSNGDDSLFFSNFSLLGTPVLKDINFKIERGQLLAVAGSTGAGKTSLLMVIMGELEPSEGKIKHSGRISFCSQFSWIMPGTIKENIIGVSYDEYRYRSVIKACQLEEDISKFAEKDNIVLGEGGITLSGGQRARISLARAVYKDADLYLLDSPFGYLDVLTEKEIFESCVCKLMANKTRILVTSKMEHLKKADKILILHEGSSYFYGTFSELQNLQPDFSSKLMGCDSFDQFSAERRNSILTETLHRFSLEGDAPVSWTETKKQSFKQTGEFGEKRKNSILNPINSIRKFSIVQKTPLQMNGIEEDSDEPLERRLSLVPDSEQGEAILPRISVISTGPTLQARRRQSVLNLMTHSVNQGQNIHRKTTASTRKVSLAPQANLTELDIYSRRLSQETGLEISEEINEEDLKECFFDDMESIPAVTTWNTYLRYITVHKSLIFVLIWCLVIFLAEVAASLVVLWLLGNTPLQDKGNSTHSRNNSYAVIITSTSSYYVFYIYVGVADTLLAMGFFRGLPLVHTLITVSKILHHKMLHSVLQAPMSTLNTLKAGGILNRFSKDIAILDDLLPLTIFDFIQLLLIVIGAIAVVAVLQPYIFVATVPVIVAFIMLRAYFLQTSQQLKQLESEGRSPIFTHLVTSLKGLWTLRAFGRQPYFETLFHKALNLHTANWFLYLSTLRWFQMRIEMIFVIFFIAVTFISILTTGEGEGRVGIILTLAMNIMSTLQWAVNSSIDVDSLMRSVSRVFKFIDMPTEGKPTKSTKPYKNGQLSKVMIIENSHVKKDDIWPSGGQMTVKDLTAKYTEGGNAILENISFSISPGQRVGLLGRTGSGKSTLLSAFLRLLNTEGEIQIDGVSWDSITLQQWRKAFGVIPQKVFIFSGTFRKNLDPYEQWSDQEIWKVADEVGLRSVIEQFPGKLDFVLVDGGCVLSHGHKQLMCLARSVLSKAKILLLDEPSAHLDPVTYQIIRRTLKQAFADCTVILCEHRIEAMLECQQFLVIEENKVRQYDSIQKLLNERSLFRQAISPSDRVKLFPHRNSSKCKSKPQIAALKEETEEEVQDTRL

SMILES	EC50 [µM]	% Activity
O=C(Nc1ccc(-c2ccccc2)cn1)c1c[nH]c2ccccc2c1=O [Compound 402, 4-oxo-N-(5-phenyl-2-pyridyl)-1H-quinoline-3-carboxamide]	< 10	+ (<25%)
NS(=O)(=O)c1cccc(NC(=O)c2c[nH]c3ccccc3c2=O)c1 [Compound 9, 4-oxo-N-(3-sulfamoylphenyl)-1H-quinoline-3-carboxamide]	25 to 60	+ (<25%)
CCCCCc1ccc(NC(=O)c2c[nH]c3ccccc3c2=O)cc1 [Compound 99, 4-oxo-N-(4-pentylphenyl)-1H-quinoline-3-carboxamide]	< 10	++ (between 25% to 100%)
Cn1cc(C(=O)Nc2ccccc2)c(=O)c2ccccc21 [Compound 468, 1-methyl-4-oxo-N-phenyl-1H-quinoline-3-carboxamide]	25 to 60	+ (<25%)
CNc1cc(NC(=O)c2c[nH]c3ccccc3c2=O)ccc1C(C)(C)C [Compound 484, N-(3-methylamino-4-tert-butyl-phenyl)-4-oxo-1H-quinoline-3-carboxamide]	< 10	++ (between 25% to 100%)
CC(C)c1ccc(NC(=O)c2c[nH]c3ccccc3c2=O)cc1N(C)C [Compound 117, N-(3-dimethylamino-4-isopropyl-phenyl)-4-oxo-1H-quinoline-3-carboxamide]	< 10	++ (between 25% to 100%)
N#Cc1cc(N2CCCC2)ccc1NC(=O)c1c[nH]c2ccccc2c1=O [Compound 622, N-(2-cyano-4-pyrrolidin-1-yl-phenyl)-4-oxo-1H-quinoline-3-carboxamide]	< 10	++ (between 25% to 100%)
CC1(c2cc(F)c(NC(=O)c3c[nH]c4ccc(F)cc4c3=O)cc2O)CCCCC1 [Compound 218, 6-fluoro-N-[2-fluoro-5-hydroxy-4-(1-methylcyclohexyl)-phenyl]-4-oxo-1H-quinoline-3-carboxamide]	< 10	++ (between 25% to 100%)
CC(C)(C)c1ccc(NC(=O)c2c[nH]c3ccccc3c2=O)cc1N1CCCC1 [Compound 707, 4-oxo-N-(3-pyrrolidin-1-yl-4-tert-butyl-phenyl)-1H-quinoline-3-carboxamide]	< 10	++ (between 25% to 100%)
O=C(Nc1ccc(Cl)cn1)c1c[nH]c2ccccc2c1=O [Compound 170, N-(5-chloro-2-pyridyl)-4-oxo-1H-quinoline-3-carboxamide]	25 to 60	+ (<25%)
CCOC(=O)Nc1cc(NC(=O)c2c[nH]c3ccccc3c2=O)ccc1C(C)(C)C [Compound 127, [5-[(4-oxo-1H-quinolin-3-yl)carbonylamino]-2-tert-butyl-phenyl]aminoformic acid ethyl ester]	< 10	++ (between 25% to 100%)
COc1ccc(C)cc1NC(=O)c1c[nH]c2ccccc2c1=O [Compound 120, N-(2-methoxy-5-methyl-phenyl)-4-oxo-1H-quinoline-3-carboxamide]	10 to 25	++ (between 25% to 100%)
CCOc1cccc(-c2ccccc2NC(=O)c2c[nH]c3ccccc3c2=O)c1 [Compound 306, N-[2-(3-ethoxyphenyl)phenyl]-4-oxo-1H-quinoline-3-carboxamide]	< 10	+++ (>100%)

Now from value to compound:

EC50 [µM]	% Activity	SMILES
< 10	++ (between 25% to 100%)	Cc1ccc(C(F)(F)F)cc1NC(=O)c1c[nH]c2ccccc2c1=O [Compound 577, N-[2-methyl-5-(trifluoromethyl)phenyl]-4-oxo-1H-quinoline-3-carboxamide]
< 10	++ (between 25% to 100%)	CN(c1ccc(F)cc1)S(=O)(=O)c1ccc2[nH]cc(C(=O)Nc3cc4[nH]ccc4cc3C(C)(C)C)c(=O)c2c1 [Compound 406, 6-[(4-fluorophenyl)-methyl-sulfamoyl]-4-oxo-N-(5-tert-butyl-1H-indol-6-yl)-1H-quinoline-3-carboxamide]
< 10	++ (between 25% to 100%)	CC(C)(C)c1cc(C(F)(F)F)c(NC(=O)c2c[nH]c3cccc(O)c3c2=O)cc1O [Compound 487, 5-hydroxy-N-[5-hydroxy-4-tert-butyl-2-(trifluoromethyl)phenyl]-4-oxo-1H-quinoline-3-carboxamide]
< 10	++ (between 25% to 100%)	O=C(Nc1cc2[nH]ccc2cc1C(F)(F)F)c1c[nH]c2cccc(O)c2c1=O [Compound 494, 5-hydroxy-4-oxo-N-[5-(trifluoromethyl)-1H-indol-6-yl]-1H-quinoline-3-carboxamide]
< 10	++ (between 25% to 100%)	O=C(Nc1cc(N2CCCCC2)cc(C(F)(F)F)c1)c1c[nH]c2ccccc2c1=O [Compound 488, 4-oxo-N-[3-(1-piperidyl)-5-(trifluoromethyl)phenyl]-1H-quinoline-3-carboxamide]
< 10	++ (between 25% to 100%)	CCOC(=O)c1c(NC(=O)c2c[nH]c3ccccc3c2=O)ccc2cc[nH]c12 [Compound 412, 6-[(4-oxo-1H-quinolin-3-yl)carbonylamino]-1H-indole-7-carboxylic acid ethyl ester]
< 10	++ (between 25% to 100%)	CC(C)(C)c1cc(F)c(NC(=O)c2c[nH]c3ccc(F)cc3c2=O)cc1O [Compound 319, 6-fluoro-N-(2-fluoro-5-hydroxy-4-tert-butyl-phenyl)-4-oxo-1H-quinoline-3-carboxamide]
25 to 60	+ (<25%)	O=C(Nc1ccc2cc[nH]c2c1)c1c(C(F)(F)F)[nH]c2ccccc2c1=O [Compound 184, N-(1H-indol-6-yl)-4-oxo-2-(trifluoromethyl)-1H-quinoline-3-carboxamide]
< 10	++ (between 25% to 100%)	CC(C)(C)c1ccc(NC(=O)c2c[nH]c3ccccc3c2=O)cc1F [Compound 645, N-(3-fluoro-4-tert-butyl-phenyl)-4-oxo-1H-quinoline-3-carboxamide]
< 10	++ (between 25% to 100%)	CC(C)(C)c1c[nH]c2cc(NC(=O)c3c[nH]c4ccccc4c3=O)ccc12 [Compound 478, 4-oxo-N-(3-tert-butyl-1H-indol-6-yl)-1H-quinoline-3-carboxamide]
< 10	++ (between 25% to 100%)	Nc1cc(NC(=O)c2c[nH]c3ccccc3c2=O)cc(C(F)(F)F)c1 [Compound 429, N-[3-amino-5-(trifluoromethyl)phenyl]-4-oxo-1H-quinoline-3-carboxamide]
10 to 25	++ (between 25% to 100%)	O=C(Nc1ccc2[nH]ccc2c1)c1c[nH]c2ccccc2c1=O [Compound 294, N-(1H-indol-5-yl)-4-oxo-1H-quinoline-3-carboxamide]
< 10	++ (between 25% to 100%)	Cc1cccc2[nH]cc(C(=O)Nc3ccc(N4CCC[C@@H]4C)nc3C(F)(F)F)c(=O)c12 [Compound 581, (S)-5-methyl-N-(6-(2-methylpyrrolidin-1-yl)-2-(trifluoromethyl)pyridin-3-yl)-4-oxo-1,4-dihydroquinoline-3-carboxamide]
< 10	++ (between 25% to 100%)	O=C(Nc1ccccc1-c1cc(F)ccc1F)c1c[nH]c2ccccc2c1=O [Compound 384, N-[2-(2,5-difluorophenyl)phenyl]-4-oxo-1H-quinoline-3-carboxamide]
